Data from ChEMBL document CHEMBL1909046, “DrugMatrix in vitro pharmacology data”.

Assays:
[1] = biological target: Sodium-dependent noradrenaline transporter (Homo sapiens, UniProt P23975); test: DRUGMATRIX: Norepinephrine Transporter radioligand binding (ligand: [125I] RTI-55); type: cell membranes, MDCK, Membrane; conditions: mdck; Not Active = under 50% inhibition at 10 µM
[2] = biological target: T1, Type-2 angiotensin II receptor (Homo sapiens, UniProt P50052); type: cell-based; conditions: cho-k1; note: in other assays of this panel Not Active means under 50% inhibition at 10 µM
T1 sequence (P50052 whole entry): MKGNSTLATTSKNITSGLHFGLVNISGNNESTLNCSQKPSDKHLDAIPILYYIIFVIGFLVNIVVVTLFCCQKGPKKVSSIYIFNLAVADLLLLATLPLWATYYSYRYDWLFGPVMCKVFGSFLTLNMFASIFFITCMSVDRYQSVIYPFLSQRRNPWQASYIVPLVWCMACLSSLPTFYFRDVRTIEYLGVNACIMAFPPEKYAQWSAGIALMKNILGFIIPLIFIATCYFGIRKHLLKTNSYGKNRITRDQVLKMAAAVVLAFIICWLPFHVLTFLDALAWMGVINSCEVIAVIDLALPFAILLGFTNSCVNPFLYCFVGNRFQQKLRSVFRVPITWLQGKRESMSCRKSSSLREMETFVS

B2 bradykinin receptor = biological target: T2, B2 bradykinin receptor (Homo sapiens, UniProt P30411); type: cell membranes, Membrane; conditions: chem-1; note: in other assays of this panel Not Active means under 50% inhibition at 10 µM
T2 sequence (P30411 whole entry): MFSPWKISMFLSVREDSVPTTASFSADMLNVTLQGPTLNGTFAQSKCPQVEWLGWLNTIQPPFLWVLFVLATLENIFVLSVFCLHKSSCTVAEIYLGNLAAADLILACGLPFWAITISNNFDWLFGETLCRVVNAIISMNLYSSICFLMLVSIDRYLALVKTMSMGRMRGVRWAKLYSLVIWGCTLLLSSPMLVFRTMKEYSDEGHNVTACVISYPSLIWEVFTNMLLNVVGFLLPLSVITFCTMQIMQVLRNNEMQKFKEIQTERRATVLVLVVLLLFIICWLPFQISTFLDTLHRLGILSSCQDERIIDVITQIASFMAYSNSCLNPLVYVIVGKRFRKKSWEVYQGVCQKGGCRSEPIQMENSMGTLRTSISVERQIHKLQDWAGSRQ

Thromboxane-A synthase = biological target: T3, Thromboxane-A synthase (Homo sapiens, UniProt P24557); test: biochemical; type: tissue-based, Platelet;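 note: enzyme inhibition assay with PGH2 supplied as substrate; in other assays of this panel Not Active means under 50% inhibition at 10 µM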
T3 sequence (P24557 whole entry): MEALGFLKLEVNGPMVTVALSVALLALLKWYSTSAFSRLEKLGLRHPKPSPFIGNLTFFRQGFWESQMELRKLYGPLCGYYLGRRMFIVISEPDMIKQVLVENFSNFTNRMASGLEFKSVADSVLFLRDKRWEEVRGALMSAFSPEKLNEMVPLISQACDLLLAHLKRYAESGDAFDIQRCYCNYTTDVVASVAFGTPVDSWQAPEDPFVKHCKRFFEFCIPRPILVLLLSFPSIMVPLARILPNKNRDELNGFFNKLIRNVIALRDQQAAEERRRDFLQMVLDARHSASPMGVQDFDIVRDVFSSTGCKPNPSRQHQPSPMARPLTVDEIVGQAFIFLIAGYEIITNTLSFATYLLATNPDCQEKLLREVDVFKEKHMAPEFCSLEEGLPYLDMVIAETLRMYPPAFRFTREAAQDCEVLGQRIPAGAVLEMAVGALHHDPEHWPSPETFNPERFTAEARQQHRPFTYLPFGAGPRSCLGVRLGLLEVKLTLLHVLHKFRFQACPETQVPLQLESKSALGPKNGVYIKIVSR

Cannabinoid receptor 1 = Cannabinoid receptor 1 (Homo sapiens, UniProt P21554); type: cell membranes, Membrane; conditions: chem-1; note: in other assays of this panel Not Active means under 50% inhibition at 10 µM
Carbonic anhydrase 2 = Carbonic anhydrase 2 (Homo sapiens, UniProt P00918); test: DRUGMATRIX: Carbonic Anhydrase II enzyme inhibition (substrate: 4-Nitrophenyl acetate (4-NPA)); type: tissue-based, Erythrocyte; conditions: erythrocyte; Not Active = under 50% inhibition at 10 µM
[3] = biological target: C-C chemokine receptor type 5 (Homo sapiens, UniProt P51681); type: cell membranes, Membrane; conditions: hek293; note: in other assays of this panel Not Active means under 50% inhibition at 10 µM
[4] = biological target: Prostaglandin G/H synthase 1 (Homo sapiens, UniProt P23219); test: biochemical; type: tissue-based, Platelet; conditions: platelet
Melanocortin receptor 5 = Melanocortin receptor 5 (Homo sapiens, UniProt P33032); type: cell membranes, HEK293, Membrane; conditions: hek293; note: in other assays of this panel Not Active means under 50% inhibition at 10 µM
[5] = biological target: T4, Amine oxidase [flavin-containing] A (Homo sapiens, UniProt P21397); test: DRUGMATRIX: Monoamine Oxidase MAO-A enzyme inhibition (substrate: Kynuramine); set-up: species or system BTI-TN-5B1-4; conditions: bti-tn-5b1-4; Not Active = under 50% inhibition at 10 µM
T4 sequence (P21397 whole entry): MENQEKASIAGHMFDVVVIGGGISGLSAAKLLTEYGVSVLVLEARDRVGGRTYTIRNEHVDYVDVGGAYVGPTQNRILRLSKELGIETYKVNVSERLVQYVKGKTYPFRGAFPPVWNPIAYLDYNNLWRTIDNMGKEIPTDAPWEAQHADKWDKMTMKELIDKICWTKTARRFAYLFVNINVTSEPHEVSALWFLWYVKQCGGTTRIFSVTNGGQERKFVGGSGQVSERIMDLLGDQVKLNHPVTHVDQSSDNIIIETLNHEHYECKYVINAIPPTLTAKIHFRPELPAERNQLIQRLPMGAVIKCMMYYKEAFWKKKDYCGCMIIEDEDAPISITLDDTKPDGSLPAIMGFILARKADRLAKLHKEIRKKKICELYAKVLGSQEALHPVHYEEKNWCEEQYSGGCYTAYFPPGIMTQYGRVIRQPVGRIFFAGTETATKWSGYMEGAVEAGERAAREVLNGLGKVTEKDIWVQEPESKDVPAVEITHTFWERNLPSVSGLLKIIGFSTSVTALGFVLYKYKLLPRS

[6] = biological target: Delta-type opioid receptor (Homo sapiens, UniProt P41143); type: cell membranes, HEK293, Membrane; conditions: hek293; note: in other assays of this panel Not Active means under 50% inhibition at 10 µM
[7] = biological target: Kappa-type opioid receptor (Homo sapiens, UniProt P41145); test: DRUGMATRIX: Opiate kappa (OP2, KOP) radioligand binding (ligand: [3H] Diprenorphine); type: cell membranes, HEK293, Membrane; conditions: hek293; Not Active = under 50% inhibition at 10 µM
[8] = DRUGMATRIX: Phosphodiesterase PDE3 enzyme inhibition (substrate: [3H]cAMP + cAMP); type: tissue-based, Homo sapiens; conditions: platelet; Not Active = under 50% inhibition at 10 µM
[9] = biological target: Protein kinase C alpha type (Homo sapiens, UniProt P17252); type: cell-based; conditions: sf9
[10] = biological target: Epidermal growth factor receptor (Homo sapiens, UniProt P00533); test: DRUGMATRIX: Protein Tyrosine Kinase, EGF Receptor enzyme inhibition (substrate: Poly(Glu:Tyr)); type: cell-based, Insect cells; conditions: insect cells; Not Active = under 50% inhibition at 10 µM
Cytochrome P450 2C9 = Cytochrome P450 2C9 (Homo sapiens, UniProt P11712); conditions: bti-tn-5b1-4; note: in other assays of this panel Not Active means under 50% inhibition at 10 µM
Cytochrome P450 2C9, sequence (P11712 whole entry): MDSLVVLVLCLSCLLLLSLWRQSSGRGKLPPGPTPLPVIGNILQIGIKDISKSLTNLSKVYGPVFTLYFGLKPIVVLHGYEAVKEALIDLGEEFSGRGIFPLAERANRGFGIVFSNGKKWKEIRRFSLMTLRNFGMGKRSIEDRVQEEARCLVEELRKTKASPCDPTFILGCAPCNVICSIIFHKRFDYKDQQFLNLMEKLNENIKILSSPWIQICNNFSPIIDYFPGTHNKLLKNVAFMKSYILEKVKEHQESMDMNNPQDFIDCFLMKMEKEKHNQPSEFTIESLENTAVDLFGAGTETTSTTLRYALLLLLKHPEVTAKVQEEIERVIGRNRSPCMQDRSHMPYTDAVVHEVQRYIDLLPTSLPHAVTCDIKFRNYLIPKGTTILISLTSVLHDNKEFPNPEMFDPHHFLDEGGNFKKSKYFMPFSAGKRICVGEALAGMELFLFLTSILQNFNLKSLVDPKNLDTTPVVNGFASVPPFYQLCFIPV

Kappa-type opioid receptor, sequence (P41145 whole entry): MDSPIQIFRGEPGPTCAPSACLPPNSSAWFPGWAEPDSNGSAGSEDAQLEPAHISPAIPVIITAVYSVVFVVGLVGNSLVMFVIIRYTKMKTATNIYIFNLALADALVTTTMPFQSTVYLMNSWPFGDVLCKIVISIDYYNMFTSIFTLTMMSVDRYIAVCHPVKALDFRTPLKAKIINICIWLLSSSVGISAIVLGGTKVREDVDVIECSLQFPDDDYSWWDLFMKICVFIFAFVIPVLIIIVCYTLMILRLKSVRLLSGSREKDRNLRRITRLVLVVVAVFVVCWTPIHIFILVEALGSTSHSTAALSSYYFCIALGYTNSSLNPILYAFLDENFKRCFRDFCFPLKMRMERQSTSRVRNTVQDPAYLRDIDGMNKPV
Melanocortin receptor 5, sequence (P33032 whole entry): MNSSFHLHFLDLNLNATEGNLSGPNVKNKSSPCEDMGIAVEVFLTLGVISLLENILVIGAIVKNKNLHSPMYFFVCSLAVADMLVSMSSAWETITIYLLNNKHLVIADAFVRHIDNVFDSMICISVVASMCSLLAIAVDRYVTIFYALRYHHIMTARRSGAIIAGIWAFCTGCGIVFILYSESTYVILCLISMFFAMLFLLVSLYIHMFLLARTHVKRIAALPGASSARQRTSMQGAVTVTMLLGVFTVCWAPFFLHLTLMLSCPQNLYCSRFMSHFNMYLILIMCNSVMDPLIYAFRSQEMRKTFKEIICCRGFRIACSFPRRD
C-C chemokine receptor type 5, sequence (P51681 whole entry): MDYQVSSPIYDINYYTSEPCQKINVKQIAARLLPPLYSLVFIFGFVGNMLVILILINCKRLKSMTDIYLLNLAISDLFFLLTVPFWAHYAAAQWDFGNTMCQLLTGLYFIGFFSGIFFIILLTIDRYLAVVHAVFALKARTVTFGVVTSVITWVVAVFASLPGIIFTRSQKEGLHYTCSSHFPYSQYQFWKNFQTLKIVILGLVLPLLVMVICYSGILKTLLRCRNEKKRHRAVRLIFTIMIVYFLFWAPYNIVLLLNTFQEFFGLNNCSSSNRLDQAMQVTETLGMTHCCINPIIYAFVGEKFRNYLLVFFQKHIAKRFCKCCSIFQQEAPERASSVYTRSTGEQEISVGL
Prostaglandin G/H synthase 1, sequence (P23219 whole entry): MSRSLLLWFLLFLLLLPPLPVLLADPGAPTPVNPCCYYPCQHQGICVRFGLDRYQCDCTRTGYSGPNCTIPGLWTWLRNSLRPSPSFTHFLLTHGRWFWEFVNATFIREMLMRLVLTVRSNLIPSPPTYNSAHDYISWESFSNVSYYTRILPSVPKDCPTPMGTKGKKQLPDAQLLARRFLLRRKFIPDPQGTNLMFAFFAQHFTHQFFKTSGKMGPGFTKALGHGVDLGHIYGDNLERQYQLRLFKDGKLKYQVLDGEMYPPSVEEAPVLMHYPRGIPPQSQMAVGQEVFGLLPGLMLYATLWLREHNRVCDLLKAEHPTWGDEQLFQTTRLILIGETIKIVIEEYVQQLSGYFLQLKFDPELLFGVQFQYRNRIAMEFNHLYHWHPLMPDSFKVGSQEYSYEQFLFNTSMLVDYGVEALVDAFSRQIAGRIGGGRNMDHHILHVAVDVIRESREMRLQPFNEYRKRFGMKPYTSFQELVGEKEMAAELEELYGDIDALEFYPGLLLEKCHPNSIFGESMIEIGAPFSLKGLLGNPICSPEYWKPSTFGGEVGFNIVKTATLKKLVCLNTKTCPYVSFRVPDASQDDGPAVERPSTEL
Epidermal growth factor receptor, sequence (P00533 whole entry): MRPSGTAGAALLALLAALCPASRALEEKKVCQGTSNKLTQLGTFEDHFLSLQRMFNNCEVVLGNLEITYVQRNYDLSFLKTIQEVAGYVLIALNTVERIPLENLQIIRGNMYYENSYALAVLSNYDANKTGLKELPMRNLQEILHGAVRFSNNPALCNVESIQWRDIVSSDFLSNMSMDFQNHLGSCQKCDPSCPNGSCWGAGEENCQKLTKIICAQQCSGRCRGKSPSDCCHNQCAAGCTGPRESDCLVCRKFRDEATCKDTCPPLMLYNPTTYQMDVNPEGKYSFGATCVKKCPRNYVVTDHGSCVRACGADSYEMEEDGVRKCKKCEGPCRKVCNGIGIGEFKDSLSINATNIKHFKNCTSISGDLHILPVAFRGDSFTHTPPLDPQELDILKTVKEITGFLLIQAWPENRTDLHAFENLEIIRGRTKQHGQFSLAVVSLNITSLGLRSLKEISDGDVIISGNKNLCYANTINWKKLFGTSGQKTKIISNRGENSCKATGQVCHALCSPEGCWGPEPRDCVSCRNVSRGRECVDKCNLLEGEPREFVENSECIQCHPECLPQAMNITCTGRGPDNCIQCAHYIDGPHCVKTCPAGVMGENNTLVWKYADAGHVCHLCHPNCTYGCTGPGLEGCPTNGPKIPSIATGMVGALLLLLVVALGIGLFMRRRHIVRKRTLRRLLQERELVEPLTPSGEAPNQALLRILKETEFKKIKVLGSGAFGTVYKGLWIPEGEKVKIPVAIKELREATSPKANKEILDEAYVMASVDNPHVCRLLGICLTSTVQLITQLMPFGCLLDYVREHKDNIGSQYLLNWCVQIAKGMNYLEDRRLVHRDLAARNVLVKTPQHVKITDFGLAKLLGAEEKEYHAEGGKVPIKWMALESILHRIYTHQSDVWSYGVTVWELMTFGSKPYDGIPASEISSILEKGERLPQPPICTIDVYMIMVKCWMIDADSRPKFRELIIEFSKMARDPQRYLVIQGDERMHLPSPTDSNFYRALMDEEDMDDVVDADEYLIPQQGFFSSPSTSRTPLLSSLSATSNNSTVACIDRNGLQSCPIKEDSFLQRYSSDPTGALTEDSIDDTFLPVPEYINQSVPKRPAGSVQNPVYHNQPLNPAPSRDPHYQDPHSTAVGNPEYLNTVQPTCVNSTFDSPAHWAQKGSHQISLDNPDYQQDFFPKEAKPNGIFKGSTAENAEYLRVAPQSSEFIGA
Cannabinoid receptor 1, sequence (P21554 whole entry): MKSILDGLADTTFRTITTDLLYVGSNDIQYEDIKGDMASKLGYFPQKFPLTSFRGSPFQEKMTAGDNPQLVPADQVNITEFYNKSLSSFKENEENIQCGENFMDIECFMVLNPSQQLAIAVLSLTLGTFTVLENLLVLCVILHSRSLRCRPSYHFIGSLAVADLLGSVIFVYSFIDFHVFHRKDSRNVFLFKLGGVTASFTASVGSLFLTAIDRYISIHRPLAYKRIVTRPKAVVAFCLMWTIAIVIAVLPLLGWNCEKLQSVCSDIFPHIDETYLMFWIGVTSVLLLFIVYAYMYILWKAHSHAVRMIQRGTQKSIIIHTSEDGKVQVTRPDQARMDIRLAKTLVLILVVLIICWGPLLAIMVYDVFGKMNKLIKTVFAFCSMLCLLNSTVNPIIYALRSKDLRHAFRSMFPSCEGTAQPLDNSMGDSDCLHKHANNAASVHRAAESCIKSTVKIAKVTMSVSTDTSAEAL
Delta-type opioid receptor, sequence (P41143 whole entry): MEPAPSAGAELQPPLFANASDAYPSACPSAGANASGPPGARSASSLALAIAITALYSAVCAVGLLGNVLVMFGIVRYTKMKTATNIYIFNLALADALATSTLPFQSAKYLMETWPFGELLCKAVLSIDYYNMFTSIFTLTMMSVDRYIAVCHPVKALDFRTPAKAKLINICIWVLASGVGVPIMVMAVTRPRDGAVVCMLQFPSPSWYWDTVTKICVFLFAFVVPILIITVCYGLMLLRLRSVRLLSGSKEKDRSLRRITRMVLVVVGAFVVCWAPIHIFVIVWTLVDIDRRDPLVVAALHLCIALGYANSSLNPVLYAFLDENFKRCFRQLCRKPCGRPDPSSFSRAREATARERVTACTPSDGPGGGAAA

For `Cc1c(-c2ccccc2)oc2c(C(=O)OCCN3CCCCC3)cccc2c1=O` [FLAVOXATE], the IC50 [1] was “Not Active”, the IC50 [2] was “Not Active” and the IC50 (B2 bradykinin receptor) was “Not Active”. For the same compound, the IC50 (Thromboxane-A synthase; platelet) was “Not Active”, the IC50 (Cannabinoid receptor 1) was “Not Active” and the IC50 (Carbonic anhydrase 2) was “Not Active”. For the same compound, the IC50 [3] was “Not Active”, the IC50 [4] was “Not Active” and the IC50 (Melanocortin receptor 5) was “Not Active”. The IC50 [5] was “Not Active”, the IC50 [6] was “Not Active” and the IC50 [7] was “Not Active”. The IC50 [8] was “Not Active”, the Ki [8] was “Not Active” and the IC50 [9] was “Not Active”. The IC50 [10] was “Not Active”, the IC50 (Cytochrome P450 2C9) was “Not Active” and the Ki (Cytochrome P450 2C9) was “Not Active”.
For `C=C1CC[C@H](O)C/C1=C/C=C1\CCC[C@]2(C)[C@@H]([C@H](C)/C=C/[C@H](C)C(C)C)CC[C@@H]12` [ERGOCALCIFEROL], the IC50 [1] was “Not Active”, the IC50 [2] was “Not Active” and the IC50 (B2 bradykinin receptor) was “Not Active”. The IC50 (Thromboxane-A synthase; platelet) was “Not Active”, the IC50 (Cannabinoid receptor 1) was “Not Active” and the IC50 (Carbonic anhydrase 2) was “Not Active”. For the same compound, the IC50 [3] was “Not Active”, the IC50 [4] was “Not Active” and the IC50 (Melanocortin receptor 5) was “Not Active”. For the same compound, the IC50 [5] was “Not Active”, the IC50 [6] was “Not Active” and the IC50 [7] was “Not Active”. For the same compound, the IC50 [8] was “Not Active”, the Ki [8] was “Not Active” and the IC50 [9] was “Not Active”. For the same compound, the IC50 [10] was “Not Active”, the IC50 (Cytochrome P450 2C9) was “Not Active” and the Ki (Cytochrome P450 2C9) was “Not Active”.
In the case of `NCC1(CC(=O)O)CCCCC1` [GABAPENTIN], the IC50 [1] is reported as “Not Active”, the IC50 [2] is reported as “Not Active” and the IC50 (B2 bradykinin receptor) is reported as “Not Active”. For the same compound, the IC50 (Thromboxane-A synthase; platelet) was “Not Active”, the IC50 (Cannabinoid receptor 1) was “Not Active” and the IC50 (Carbonic anhydrase 2) was “Not Active”. The IC50 [3] was “Not Active”, the IC50 [4] was “Not Active” and the IC50 (Melanocortin receptor 5) was “Not Active”. The IC50 [5] was “Not Active”, the IC50 [6] was “Not Active” and the IC50 [7] was “Not Active”. For the same compound, the IC50 [8] was “Not Active”, the Ki [8] was “Not Active” and the IC50 [9] was “Not Active”. The IC50 [10] was “Not Active”, the IC50 (Cytochrome P450 2C9) was “Not Active” and the Ki (Cytochrome P450 2C9) was “Not Active”.
With `O=c1cc(-c2ccccc2)oc2c1ccc1ccccc12` [ALPHA-NAPHTHOFLAVONE] the IC50 [1] was “Not Active”, the IC50 [2] was “Not Active” and the IC50 (B2 bradykinin receptor) was “Not Active”. The IC50 (Thromboxane-A synthase; read-out: IC50) was 6.76 µM, the IC50 (Cannabinoid receptor 1) was “Not Active” and the IC50 (Carbonic anhydrase 2) was “Not Active”. The IC50 [3] was “Not Active”, the IC50 [4] was “Not Active” and the IC50 (Melanocortin receptor 5) was “Not Active”. The IC50 [5] was “Not Active”, the IC50 [6] was “Not Active” and the IC50 [7] was “Not Active”. The IC50 [8] was “Not Active”, the Ki [8] was “Not Active” and the IC50 [9] was “Not Active”. The IC50 [10] was “Not Active”, the IC50 (Cytochrome P450 2C9) was “Not Active” and the Ki (Cytochrome P450 2C9) was “Not Active”.
For `CC1=Nc2ccc(Cl)cc2S(=O)(=O)N1` [DIAZOXIDE], the IC50 [1] was “Not Active”, the IC50 [2] was “Not Active” and the IC50 (B2 bradykinin receptor) was “Not Active”. For the same compound, the IC50 (Thromboxane-A synthase; platelet) was “Not Active”, the IC50 (Cannabinoid receptor 1) was “Not Active” and the IC50 (Carbonic anhydrase 2) was “Not Active”. The IC50 [3] was “Not Active”, the IC50 [4] was “Not Active” and the IC50 (Melanocortin receptor 5) was “Not Active”. For the same compound, the IC50 [5] was “Not Active”, the IC50 [6] was “Not Active” and the IC50 [7] was “Not Active”. For the same compound, the IC50 [8] was “Not Active”, the Ki [8] was “Not Active” and the IC50 [9] was “Not Active”. The IC50 [10] was “Not Active”, the IC50 (Cytochrome P450 2C9) was “Not Active” and the Ki (Cytochrome P450 2C9) was “Not Active”.
For `COC(=O)[C@H](c1ccccc1Cl)N1CCc2sccc2C1` [CLOPIDOGREL], the IC50 [1] was “Not Active”, the IC50 [2] was “Not Active” and the IC50 (B2 bradykinin receptor) was “Not Active”. The IC50 (Thromboxane-A synthase; platelet) was “Not Active”, the IC50 (Cannabinoid receptor 1) was “Not Active” and the IC50 (Carbonic anhydrase 2) was “Not Active”. The IC50 [3] was “Not Active”, the IC50 [4] was “Not Active” and the IC50 (Melanocortin receptor 5) was “Not Active”. The IC50 [5] was “Not Active”, the IC50 [6] was “Not Active” and the IC50 [7] was “Not Active”. The IC50 [8] was “Not Active”, the Ki [8] was “Not Active” and the IC50 [9] was “Not Active”. For the same compound, the IC50 [10] was “Not Active”, the IC50 (Cytochrome P450 2C9) was “Not Active” and the Ki (Cytochrome P450 2C9) was “Not Active”.
